Reference: patent US20230381275A1, “MUSCULAR FUNCTION IMPROVING AGENT FOR SKELETAL MUSCLE OF WHICH FUNCTION IS DEGRADED DUE TO AGING” (OSAKA UNIVERSITY, priority 2020, published 2023)

Columns and labels:
[1] = tested on: aging-accelerated model mice; experiment: Mean cross-sectional area of muscle fibers, HE staining, 51-week-old mice (Example 5); assay type: in vivo
Description: (§1) In this example, the training schedule and SV peptide administration concentration were changed from Example 4, and exercise evaluation (endurance evaluation) was conducted in aging-accelerated model mice when SV peptide was continuously administered. In addition, the cross-sectional area of muscle fibers (gastrocnemius (type I, type IIa, type IIb), extensor digitorum longus, and tibialis anterior muscles) were evaluated in mice that continued training and SV peptide administration until 51 weeks of age.
(§2) Aging-accelerated model mice were trained on a treadmill (MK-680; Muromachi Kikai Co., Ltd.) (18 m/min×90 min) and subsequent SV peptide administration was performed according to the schedule in the following table. 30 weeks of age and thereafter, training was performed continuously from Monday to Friday of each week. SV peptide was added to PBS to adjust to a concentration of 1 μg/ml for an injection formulation and localized to the bilateral leg muscles of each mouse anesthetized by inhalation with sevoflurane immediately after training on Tuesday and Friday (SV group; twice weekly administration). Exercise evaluations were performed every other Friday.
The gastrocnemius, extensor digitorum longus, and tibialis anterior muscles of the lower limbs were removed from 51-week-old aging-accelerated model mice, and after sections were prepared according to the standard method, the cross-sectional area of muscle fibers was measured by HE staining. […] The mean cross-sectional area of muscle fibers was also measured for each type of gastrocnemius muscle fiber (type I, type IIa, and type IIb). The mean cross-sectional area of muscle fibers was the mean of more than 50 fibers of each muscle fiber type.

[2] = tested on: fibroblasts; conditions: Non-Patent Documents 5, 6, Patent Documents 1-4; cited from earlier work
[3] = tested on: aging-accelerated model mice (SAMP10); experiment: Number of collisions on treadmill retest 12, 24 or 72 hours after local injection (Example 2); assay type: in vivo; conditions: SAMP10 36 weeks old, SV peptide total 40 ng into bilateral lower limb muscles, vs PBS control, FIG. 2
Description: In this example, SV peptide was administered to aging-accelerated model mice, and the recovery effect of muscle function after a certain period of time by the administration was confirmed.
Treadmill running was performed using aging-accelerated model mice (SAMP10 36 weeks old) under the same conditions as the first basic training of 35-week-old mice in Example 1, and SV peptide (total 40 ng) was injected into the bilateral lower limb muscles immediately after treadmill running (experimental group).
SV peptide was administered at the same site and dose as in the 35-week-old mice of Example 1. The number of collisions was evaluated by retesting treadmill running (18 m/min×90 min) at 12, 24, or 72 hours after local injection. In the control group, after treadmill running as in the experimental group, PBS was injected into the bilateral leg muscles instead of SV peptide, and the number of collisions on the treadmill was measured 12, 24, or 72 hours after the injection.

[4] = tested on: aging-accelerated model mice (SAMP10); experiment: Exercise evaluation on treadmill, mean workload (Example 4); assay type: in vivo; conditions: SV-treated group (training and SV peptide) relative to PBS group; FIG. 6
Description: Aging-accelerated model mice (SAMP10 28 weeks old) were trained on a treadmill (MK-680; Muromachi Kikai Co., Ltd.) (18 m/min×90 min) and subsequent SV peptide administration was performed according to the schedule in the following table. After 30 weeks of age, training was performed continuously from Monday to Friday of each week. SV peptides were added to PBS to adjust to a concentration of 1 μg/ml or 20 ng/ml for injection formulation. Localized injections were made into the bilateral leg muscles of each mouse anesthetized by inhalation with sevoflurane immediately after training on Tuesday and Friday (SV group). Exercise evaluations were performed after SV peptide localization on Friday.
Exercise evaluations were conducted for endurance evaluation, in which the belt speed on the treadmill was increased incrementally at regular intervals, and for slope-up evaluation, in which the belt incline was increased incrementally at regular intervals. […]
The mean workload was calculated as the mean value of workload calculated by multiplying body weight, running time, slope (grade), running speed, and gravitational acceleration g(9.8 m/s^2) for each mouse in each group by […].

[5] = tested on: aging-accelerated model mice; experiment: Endurance evaluation test on treadmill (Example 6); assay type: in vivo; conditions: SV group, SV peptide 2 μg/ml one dose every other week plus training
Description: In this example, the number of SV peptide doses and dosage in Example 4 was changed as shown in the following table, and exercise evaluation (endurance evaluation) was performed when SV peptide was continuously administered to aging-accelerated model mice. The conditions other than the number of SV peptide doses and dosage were the same as in Example 4.
Specifically, SV peptide was added to PBS to adjust to a concentration of 2 μg/ml for the injectable formulation, and localized to the bilateral lower limb muscles of each mouse anesthetized by inhalation with sevoflurane immediately after training on Friday every other week (even weeks) (SV group; one dose every other week).
The results of the endurance evaluation test are shown in FIG. 12 with a graph showing the mean running distance for the SV group (n=3) and the PBS group (n=4). A graph showing the difference between the mean running distance on the reference date (30 weeks old) and the mean running distance in each test is also shown in FIG. 13.

[6] = tested on: aging-accelerated model mice; experiment: Endurance evaluation test on treadmill (Example 5); assay type: in vivo; conditions: SV group
Description: as §1, §2
Exercise evaluation was performed by endurance assessment, in which the belt speed on the treadmill was increased stepwise at regular intervals. The elapsed time and belt speed increase used for the endurance evaluation test were the same as in Example 4. In the PBS group as a control group, PBS was injected into the bilateral leg muscles instead of SV peptide after training on the treadmill in the same manner as in the SV group.
The results of the endurance evaluation test are shown in FIG. 7 as a graph showing the difference between the mean running distance on the reference date (30 weeks of age) and the mean running distance in each test.
The results of the endurance evaluation test are also shown in FIG. 8 as a graph showing the difference between the mean speed on the reference day and the mean speed on each test day. The mean speed for each group was calculated as the mean of the highest speeds reached by each mouse in each group (mean speeds were calculated in the same manner hereinafter).

[7] = SV group vs PBS group, mean of more than 50 fibers, FIGS. 10 and 11
[8] = SV peptide 1 μg/ml plus training from 28 to 51 weeks, vs PBS group, FIG. 9

SVVYGLR [SV peptide, peptide consisting of 7 amino acids (SVVYGLR]
cross-sectional area of type I gastrocnemius muscle fibers [1, 7]: increased compared to the PBS group
cross-sectional area of type IIa gastrocnemius muscle fibers [1, 7]: increased compared to the PBS group
cross-sectional area of type IIb gastrocnemius muscle fibers [1, 7]: increased compared to the PBS group
mean cross-sectional area of muscle fibers, extensor digitorum longus muscle [1, 8]: significantly larger than that in the PBS group
mean cross-sectional area of muscle fibers, gastrocnemius muscle [1, 8]: significantly larger than that in the PBS group
mean cross-sectional area of muscle fibers, tibialis anterior muscle [1, 8]: significantly larger than that in the PBS group
differentiation of fibroblasts to myofibroblasts [2]: promoting
number of collisions during treadmill running ([3]; 12 hours after local injection): significantly reduced
number of collisions during treadmill running ([3]; 24 hours after local injection): significantly reduced
number of collisions during treadmill running ([3]; 72 hours after local injection): significantly reduced
mean workload [4]: higher workload relative to the PBS group
mean running distance ([5]; after 49 weeks of age): able to maintain the same mean running distance as the 30-week-old group
mean running distance ([5]; from 31 to 48 weeks of age, FIGS. 12 and 13): increased significantly
decrease in the mean running distance during the test period ([6]; 1 μg/ml twice weekly plus training, relative to the PBS group, FIG. 7): able to suppress the decrease in the mean running distance
decrease in mean speed during the test period ([6]; 1 μg/ml twice weekly plus training, relative to the PBS group, FIG. 8): able to suppress the decrease in mean speed
mean speed (mean of highest speeds reached) relative to reference day ([6]; 1 μg/ml twice weekly plus training, test from 31 to 39 weeks of age, FIG. 8): increased continuously
mean running distance relative to the reference date (30 weeks of age) ([6]; SV peptide 1 μg/ml twice weekly plus training, tests at 31 to 41 weeks of age, FIG. 7): increased from the reference date
